In the supplement of paper PMC10307832:

How the values were obtained:
Assay in all cases: relative viability (nuclei count vs DMSO), 5 days (fraction); higher = more cells survive
Apatinib + OSI-027 = compound: N#CC1(c2ccc(NC(=O)c3cccnc3NCc3ccncc3)cc2)CCCC1 [Apatinib] + COc1cccc2cc(-c3nc([C@H]4CC[C@H](C(=O)O)CC4)n4ncnc(N)c34)[nH]c12 [OSI-027] (partner 0.5 µM)
Summary of the method: (§1)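 For relative viability, nuclei counts in treated wells were divided by those in vehicle wells. Lung cancer cell lines had been pin-tool dosed in 1536-well plates the day after seeding and cultured for 5 days, then fixed and stained in one step (final 0.05% Triton X-100, 1% formaldehyde, 1 ug/ml Hoechst) and imaged at 4×. Doses were one drug alone or a fixed anchor-drug dose plus five library-drug doses (not always all listed) in √10 steps, and values are duplicate-plate medians.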

Apatinib + Decitabine = compound: N#CC1(c2ccc(NC(=O)c3cccnc3NCc3ccncc3)cc2)CCCC1 [Apatinib] + Nc1ncn([C@H]2C[C@H](O)[C@@H](CO)O2)c(=O)n1 [Decitabine] (partner 2 µM)
Summary of the method: as §1

Apatinib + Olaparib = compound: N#CC1(c2ccc(NC(=O)c3cccnc3NCc3ccncc3)cc2)CCCC1 [Apatinib] + O=C(c1cc(Cc2n[nH]c(=O)c3ccccc23)ccc1F)N1CCN(C(=O)C2CC2)CC1 [Olaparib] (partner 8 µM)
Summary of the method: as §1

Metformin + Pemetrexed = compound: CN(C)C(=N)NC(=N)N [Metformin] + Nc1nc2[nH]cc(CCc3ccc(C(=O)N[C@@H](CCC(=O)O)C(=O)O)cc3)c2c(=O)[nH]1 [Pemetrexed] (partner 0.2 µM)
Summary of the method: as §1

Cell Line	relative viability (Apatinib + OSI-027; first compound 0.08 µM)	relative viability (Apatinib + OSI-027; first compound 0.253 µM)	relative viability (Apatinib + OSI-027; first compound 0.8 µM)	relative viability (Apatinib + OSI-027; first compound 2.53 µM)	relative viability (Apatinib + OSI-027; first compound 8 µM)	relative viability (Apatinib + Decitabine; first compound 0.08 µM)	relative viability (Apatinib + Decitabine; first compound 0.253 µM)	relative viability (Apatinib + Decitabine; first compound 0.8 µM)	relative viability (Apatinib + Decitabine; first compound 2.53 µM)	relative viability (Apatinib + Decitabine; first compound 8 µM)	relative viability (Apatinib + Olaparib; first compound 0.08 µM)	relative viability (Apatinib + Olaparib; first compound 0.253 µM)	relative viability (Apatinib + Olaparib; first compound 0.8 µM)	relative viability (Apatinib + Olaparib; first compound 2.53 µM)	relative viability (Apatinib + Olaparib; first compound 8 µM)	relative viability (Metformin + Pemetrexed; first compound 31.62 µM)	relative viability (Metformin + Pemetrexed; first compound 100 µM)	relative viability (Metformin + Pemetrexed; first compound 316.23 µM)	relative viability (Metformin + Pemetrexed; first compound 1000 µM)	relative viability (Metformin + Pemetrexed; first compound 10 µM)
HCC-44	0.457	0.524	0.395	0.446	0.522	0.963	0.929	0.887	0.95	0.89	0.989	1	0.924	0.97	0.971	0.593	0.593	0.531	0.603	
HOP-62	0.917	0.874	0.799	0.714	0.605	0.221	0.212	0.2	0.428	0.519	0.328	0.396	0.407	0.354	0.282	0.336	0.276	0.215	0.321	0.239
NCI-H358	0.898	0.789	0.772	0.706	0.692	0.225	0.219	0.24	0.218	0.316	0.681	0.559	0.553	0.569	0.453	0.182	0.146	0.162	0.179	0.156
NCI-H596	0.795	0.656	0.653	0.486	0.545	1	1.18	0.916	1.04	1.08	0.822	0.73	0.722	0.65	0.634	0.563	0.546	0.498	0.539	0.582
ABC-1		0.543	0.453	0.499	0.336		1.04	1.19	1.21	0.895		0.957	0.626	0.769	0.638					
SW 900	0.563	0.605	0.497	0.545	0.412	0.417	0.479	0.447	0.562	0.652	0.974	0.823	0.842	0.714	0.606	0.479		0.507	0.477	0.52
NCI-H1734	0.597	0.597	0.578	0.495	0.453	0.532	0.549	0.482	0.563	0.623	0.675	0.622	0.61	0.56	0.565	0.418	0.461	0.456	0.455	0.49
HARA	0.782	0.359	0.482	0.448	0.303	0.676	0.538	0.438		0.671	0.761	0.582	0.848		0.706	0.28	0.327	0.301	0.28	0.323
NCI-H1703											0.512	0.21	0.173	0.159	0.138					
A549						0.257	0.264	0.247	0.344	0.448	0.329	0.382	0.414	0.367	0.302					
NCI-H1915	0.67	0.614	0.672	0.537	0.503	0.296	0.266	0.265	0.339	0.388	0.262	0.257	0.266	0.264	0.239	0.438	0.404	0.379	0.435	
NCI-H1355	0.391	0.396	0.394	0.374	0.364	0.35	0.349	0.39	0.367	0.447	0.787	0.798	0.745	0.647	0.616	1.02	1.02	1	0.94	0.942
NCI-H1650		0.776	0.456	0.463	0.541	0.495	0.55	0.416	0.64	0.589	0.827	0.787	0.799	0.761	0.696	0.428	0.388	0.404	0.301	0.398
HCC-78	0.355	0.298	0.384	0.34	0.332	0.7	0.694	0.692	0.701	0.913	0.803	0.696	0.878	0.711	0.768	0.878	1.15	0.894	0.908	
NCI-H1666	0.883	0.826	0.797	0.73	0.755	0.756	0.727	0.692	0.737	0.612	0.803	0.8	0.705	0.743	0.765	0.862	0.854	0.871	0.928	0.825
HCC-15	0.719	0.691	0.658	0.628	0.509	0.703	0.656	0.638	0.604	0.606	0.657	0.76	0.686	0.615	0.54	0.21	0.207	0.228	0.22	0.233
EKVX	0.684	0.688	0.654	0.639	0.558	0.352	0.291	0.339	0.309	0.298	0.801	0.793	0.88	0.734	0.587	0.301	0.417	0.316	0.294	
NCI-H3122	0.952	0.64	0.969	0.955	0.845	0.505	0.431	0.44	0.495	0.433	0.609	0.655	0.525	0.613	0.597	0.171	0.197	0.184	0.222	0.178
NCI-H1651	0.782	0.867	0.647	0.683	0.599	0.609	0.53	0.611	0.593	0.41	0.192	0.206	0.186	0.17	0.172	0.62	0.608	0.53	0.599	0.445
COR-L23	0.844	0.792	0.673	0.669	0.6	0.514	0.509	0.452	0.427	0.413	0.355	0.377	0.324	0.273	0.286	0.186	0.209	0.195	0.203	0.196

Cell Line	relative viability (Apatinib + OSI-027; first compound 0.08 µM)	relative viability (Apatinib + OSI-027; first compound 0.253 µM)	relative viability (Apatinib + OSI-027; first compound 0.8 µM)	relative viability (Apatinib + OSI-027; first compound 2.53 µM)	relative viability (Apatinib + OSI-027; first compound 8 µM)	relative viability (Apatinib + Decitabine; first compound 0.08 µM)	relative viability (Apatinib + Decitabine; first compound 0.253 µM)	relative viability (Apatinib + Decitabine; first compound 0.8 µM)	relative viability (Apatinib + Decitabine; first compound 2.53 µM)	relative viability (Apatinib + Decitabine; first compound 8 µM)	relative viability (Apatinib + Olaparib; first compound 0.08 µM)	relative viability (Apatinib + Olaparib; first compound 0.253 µM)	relative viability (Apatinib + Olaparib; first compound 0.8 µM)	relative viability (Apatinib + Olaparib; first compound 2.53 µM)	relative viability (Apatinib + Olaparib; first compound 8 µM)	relative viability (Metformin + Pemetrexed; first compound 31.62 µM)	relative viability (Metformin + Pemetrexed; first compound 100 µM)	relative viability (Metformin + Pemetrexed; first compound 316.23 µM)	relative viability (Metformin + Pemetrexed; first compound 1000 µM)	relative viability (Metformin + Pemetrexed; first compound 10 µM)
A-427	0.52	0.465	0.479	0.476	0.404	0.604	0.583	0.533	0.575	0.618	0.66	0.71	0.73	0.641	0.612	1.05	1	1	0.878	0.972
NCI-H2342	0.579	0.573	0.626	0.529	0.518	0.704	0.767	0.709	0.799	0.791	0.419	0.477	0.457	0.438	0.368	1.13	0.751	0.786	0.752	
201T		0.763	0.718	0.723	0.751	0.863	0.895	0.842	0.85	0.781	0.872	0.817	0.789	0.9	0.749	0.329	0.313	0.289	0.353	
NCI-H522	0.731	0.752	0.703	0.72	0.691	0.685	0.63	0.749	0.606	0.672	0.667	0.644	0.615	0.692	0.584	1.21	1.25	1.12	1.46	1.15
NCI-H2023	0.499	0.42	0.342	0.296	0.207	0.233	0.261	0.269	0.307	0.472	0.429	0.508	0.462	0.35	0.395	0.219	0.226	0.187	0.205	0.185
NCI-H2085	0.858	0.706	0.767	0.612	0.549	0.592	0.573	0.582	0.587	0.712	0.763	0.748	0.766	0.68	0.771	0.815	0.904	0.881	0.955	0.917
LXF-289	0.81	0.849	0.745	0.763	0.718	0.4	0.386	0.391	0.565	0.594	1.03	1.18	0.993	0.956	0.904	0.83	0.756	0.806	0.784	0.74
NCI-H1975	0.718	0.901	0.55	0.418	0.42	0.406	0.372	0.413	0.381	0.466	0.795	0.77	0.727	0.723	0.634	0.296	0.317	0.269	0.289	0.277
LU99A	0.317	0.277	0.259	0.243	0.263	1.01	1.01	0.843	0.895	0.774	0.286	0.269	0.276	0.252	0.207	0.212	0.157	0.168	0.164	0.152
HCC-827	0.856	0.742	0.575	0.719	0.642	0.345	0.335	0.363	0.322	0.327	0.68	0.628	0.644	0.54	0.561	0.282	0.265	0.263	0.263	0.236
Calu-6											0.618	0.648	0.541	0.426	0.393					
NCI-H2228	0.472	0.761	0.547	0.429	0.448						0.837	0.754	0.456	0.58	0.323	0.199	0.381	0.28	0.337	0.313
IA-LM											0.765	0.766	0.769	0.607	0.396					
EBC-1											0.76	0.698	0.65	0.588	0.472					
NCI-H1563	0.812	0.865	0.731	0.706	0.718											0.899	0.847	0.89	0.921	0.874
NCI-H1623	0.443	0.423	0.404	0.351	0.385															
NCI-H727	0.55	0.565	0.533	0.642	0.466	0.89		0.973	0.985	0.729	0.812		0.725	0.622	0.718					
NCI-H1299											1.03	1.01	0.927	0.873	0.638					
CAL-12T	0.652	0.589	0.52	0.366	0.272						0.723	0.673	0.647	0.638	0.583	1.04	1.26	1.13	0.97	1.05
